Several values for one entry are separate records, joined by “and”; a condition that tells them apart may be missing. Equal values may be shown once. Blank lines part the entries; values can stand above or below the molecule they belong to.
Test system: 855422-203-R-J1-PDC complex spheroid viability
Experiment: Anticancer human tumor 855422-203-R-J1-PDC patient-derived bladder carcinoma cell line growth inhibition
Settings: for viability, T/C: stronger effect = lower value
Method in brief: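 Complex spheroids of tumor cells with HUVEC and human MSCs, exposed to iadademstat combined with other agents. Each agent tested in half-log steps from near clinical Cmax (else 10 microM top), DMSO ≤0.25%.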

[1] = curve of first compound, second compound 0.1 µM
[2] = curve of first compound, second compound 0.316 µM
[3] = curve of first compound, second compound 1 µM
[4] = curve of first compound, second compound 3.16 µM
[5] = curve of first compound, second compound 10 µM
[6] = second compound 0.1 µM, first compound 0.00316 µM
[7] = second compound 0.1 µM, first compound 0.01 µM
[8] = second compound 0.1 µM, first compound 0.0316 µM
[9] = second compound 0.1 µM, first compound 0.1 µM
[10] = second compound 0.1 µM, first compound 0.316 µM
[11] = second compound 0.1 µM, first compound 1 µM
[12] = second compound 0.316 µM, first compound 0.00316 µM
[13] = second compound 0.316 µM, first compound 0.01 µM
[14] = second compound 0.316 µM, first compound 0.0316 µM
[15] = second compound 0.316 µM, first compound 0.1 µM
[16] = second compound 0.316 µM, first compound 0.316 µM
[17] = second compound 0.316 µM, first compound 1 µM
[18] = second compound 1 µM, first compound 0.00316 µM
[19] = second compound 1 µM, first compound 0.01 µM
[20] = second compound 1 µM, first compound 0.0316 µM
[21] = second compound 1 µM, first compound 0.1 µM
[22] = second compound 1 µM, first compound 0.316 µM
[23] = second compound 1 µM, first compound 1 µM
[24] = second compound 3.16 µM, first compound 0.00316 µM
[25] = second compound 3.16 µM, first compound 0.01 µM
[26] = second compound 3.16 µM, first compound 0.0316 µM
[27] = second compound 3.16 µM, first compound 0.1 µM
[28] = second compound 3.16 µM, first compound 0.316 µM
[29] = second compound 3.16 µM, first compound 1 µM
[30] = second compound 10 µM, first compound 0.00316 µM
[31] = second compound 10 µM, first compound 0.01 µM
[32] = second compound 10 µM, first compound 0.0316 µM
[33] = second compound 10 µM, first compound 0.1 µM
[34] = second compound 10 µM, first compound 0.316 µM
[35] = second compound 10 µM, first compound 1 µM
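Note: drug exposure lasted 7 days starting on day 3 after seeding.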
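Throughout, for viability, T/C: luminescence viability as percent of DMSO vehicle wells = 100%.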

IC50 (curve of compound): > 0.1 µM
Structure (SMILES): Cn1ncnc1C1c2n[nH]c(=O)c3cc(F)cc(c23)NC1c1ccc(F)cc1 (stereo unspecified)
viability, T/C (compound 0.000316 µM): 114% and 96.5%
viability, T/C (compound 0.001 µM): 89% and 83.3%
viability, T/C (compound 0.00316 µM): 95.8% and 84.2%
viability, T/C (compound 0.01 µM): 95.8% and 73.8%
viability, T/C (compound 0.0316 µM): 89.2% and 86.2%
viability, T/C (compound 0.1 µM): 81.8% and 86.8%

IC50 (curve of compound): 0.436 µM and 0.668 µM
Structure (SMILES): NS(=O)(=O)OCC1CC(n2ccc3c(NC4CCc5ccccc54)ncnc32)CC1O (stereo unspecified)
viability, T/C (compound 0.00949 µM): 97.8% and 103%
viability, T/C (compound 0.03 µM): 81% and 96.5%
viability, T/C (compound 0.0949 µM): 81.1% and 100%
viability, T/C (compound 0.3 µM): 63.5% and 87.5%
viability, T/C (compound 0.949 µM): 25.4% and 33.6%
viability, T/C (compound 3 µM): 9.22% and 9.95%

The next lines start with the molecule.

Structure (SMILES): CC1(C)CCC(CN2CCN(c3ccc(C(=O)NS(=O)(=O)c4ccc(NCC5CCOCC5)c([N+](=O)[O-])c4)c(Oc4cnc5[nH]ccc5c4)c3)CC2)=C(c2ccc(Cl)cc2)C1
viability, T/C (compound 0.0316 µM): 102% and 97.3%
viability, T/C (compound 0.1 µM): 105% and 94.6%
viability, T/C (compound 0.316 µM): 104% and 110%
viability, T/C (compound 1 µM): 103% and 107%
viability, T/C (compound 3.16 µM): 80.6% and 83.9%
viability, T/C (compound 10 µM): 17.9% and 15.2%
IC50 (curve of compound): 5.55 µM and 5.57 µM

Structure (SMILES): COc1cc(C2c3cc4c(cc3C(OC3OC5COC(C)OC5C(O)C3O)C3COC(=O)C23)OCO4)cc(OC)c1O (stereo unspecified) + NC1CC1c1ccc(-c2cccc(O)c2)cc1
IC50 [1]: 0.148 µM
IC50 [2]: 0.155 µM
IC50 [3]: 0.129 µM
IC50 [4]: 0.119 µM
IC50 [5]: 0.0921 µM
viability, T/C (second compound 0.1 µM, first compound 0.00949 µM): 96.3%
viability, T/C (second compound 0.1 µM, first compound 0.03 µM): 98.3%
viability, T/C (second compound 0.1 µM, first compound 0.0949 µM): 59.5%
viability, T/C (second compound 0.1 µM, first compound 0.3 µM): 31.1%
viability, T/C (second compound 0.1 µM, first compound 0.949 µM): 19.7%
viability, T/C (second compound 0.1 µM, first compound 3 µM): 10.7%
viability, T/C (second compound 0.316 µM, first compound 0.00949 µM): 101%
viability, T/C (second compound 0.316 µM, first compound 0.03 µM): 102%
viability, T/C (second compound 0.316 µM, first compound 0.0949 µM): 60.9%
viability, T/C (second compound 0.316 µM, first compound 0.3 µM): 32.6%
viability, T/C (second compound 0.316 µM, first compound 0.949 µM): 19.7%
viability, T/C (second compound 0.316 µM, first compound 3 µM): 11.6%
viability, T/C (second compound 1 µM, first compound 0.00949 µM): 91.6%
viability, T/C (second compound 1 µM, first compound 0.03 µM): 95.8%
viability, T/C (second compound 1 µM, first compound 0.0949 µM): 55.4%
viability, T/C (second compound 1 µM, first compound 0.3 µM): 28.9%
viability, T/C (second compound 1 µM, first compound 0.949 µM): 17.6%
viability, T/C (second compound 1 µM, first compound 3 µM): 10.9%
viability, T/C (second compound 3.16 µM, first compound 0.00949 µM): 100%
viability, T/C (second compound 3.16 µM, first compound 0.03 µM): 96.9%
viability, T/C (second compound 3.16 µM, first compound 0.0949 µM): 52.3%
viability, T/C (second compound 3.16 µM, first compound 0.3 µM): 27.9%
viability, T/C (second compound 3.16 µM, first compound 0.949 µM): 16.2%
viability, T/C (second compound 3.16 µM, first compound 3 µM): 8.34%
viability, T/C (second compound 10 µM, first compound 0.00949 µM): 99.5%
viability, T/C (second compound 10 µM, first compound 0.03 µM): 97%
viability, T/C (second compound 10 µM, first compound 0.0949 µM): 46.5%
viability, T/C (second compound 10 µM, first compound 0.3 µM): 26.6%
viability, T/C (second compound 10 µM, first compound 0.949 µM): 18.4%
viability, T/C (second compound 10 µM, first compound 3 µM): 9.12%

Structure (SMILES): CC1COCCN1c1cc(-c2ccnn2C)c2ccnc(-c3ccn[nH]3)c2n1 (stereo unspecified) + NC1CC1c1ccc(-c2cccc(O)c2)cc1
IC50 [1]: 0.131 µM
IC50 [2]: 0.102 µM
IC50 [3]: 0.0947 µM
IC50 [4]: 0.106 µM
IC50 [5]: 0.0775 µM
viability, T/C [6]: 111%
viability, T/C [7]: 101%
viability, T/C [8]: 100%
viability, T/C [9]: 54.5%
viability, T/C [10]: 34.8%
viability, T/C [11]: 35.5%
viability, T/C [12]: 102%
viability, T/C [13]: 93%
viability, T/C [14]: 99.7%
viability, T/C [15]: 50.2%
viability, T/C [16]: 35%
viability, T/C [17]: 31%
viability, T/C [18]: 94.7%
viability, T/C [19]: 97.8%
viability, T/C [20]: 89%
viability, T/C [21]: 48.3%
viability, T/C [22]: 30.8%
viability, T/C [23]: 33.9%
viability, T/C [24]: 91.8%
viability, T/C [25]: 99.5%
viability, T/C [26]: 94.7%
viability, T/C [27]: 51%
viability, T/C [28]: 30.1%
viability, T/C [29]: 29.5%
viability, T/C [30]: 90.7%
viability, T/C [31]: 90.5%
viability, T/C [32]: 80.9%
viability, T/C [33]: 41.2%
viability, T/C [34]: 27.1%
viability, T/C [35]: 26.1%

Structure (SMILES): Nc1ncn(C2CC(O)C(CO)O2)c(=O)n1 (stereo unspecified) + NC1CC1c1ccc(-c2cccc(O)c2)cc1
IC50 [1]: > 1 µM
IC50 [2]: > 1 µM
IC50 [3]: > 1 µM
IC50 [4]: > 1 µM
IC50 [5]: > 1 µM
viability, T/C [6]: 104%
viability, T/C [7]: 98.2%
viability, T/C [8]: 99.7%
viability, T/C [9]: 106%
viability, T/C [10]: 93.5%
viability, T/C [11]: 92.4%
viability, T/C [12]: 104%
viability, T/C [13]: 95%
viability, T/C [14]: 96.5%
viability, T/C [15]: 91.6%
viability, T/C [16]: 90.3%
viability, T/C [17]: 88.7%
viability, T/C [18]: 84.9%
viability, T/C [19]: 88.6%
viability, T/C [20]: 89.2%
viability, T/C [21]: 93.5%
viability, T/C [22]: 91.5%
viability, T/C [23]: 86.7%
viability, T/C [24]: 91.6%
viability, T/C [25]: 83.3%
viability, T/C [26]: 88%
viability, T/C [27]: 86.6%
viability, T/C [28]: 89.5%
viability, T/C [29]: 84.2%
viability, T/C [30]: 74.7%
viability, T/C [31]: 76.8%
viability, T/C [32]: 84.2%
viability, T/C [33]: 82%
viability, T/C [34]: 94.8%
viability, T/C [35]: 85.2%

— PubChem BioAssay AID1918943 (Molecular Pharmacology Branch, DTP, NCI, 2023)
